The source made the active and inactive calls. No cut-off for these calls is given here.
Assays:
[1] = Binding affinity to regulatory site of NMDA receptor at 5 ug/mL by glycine binding assay
[2] = test system: BOWES; experiment: Binding affinity to galanin receptor in human BOWES cells at 5 ug/mL; assay type: cell-based
[3] = target: Calcitonin gene-related peptide type 1 receptor (Homo sapiens) (UniProt Q16602); experiment: Binding affinity to CGRP receptor at 5 ug/mL
[4] = target: T1, Neuromedin-K receptor (Homo sapiens) (UniProt P29371); experiment: Binding affinity to NK3 tachykinin receptor at 5 ug/mL by senktide binding assay
T1 sequence (whole entry): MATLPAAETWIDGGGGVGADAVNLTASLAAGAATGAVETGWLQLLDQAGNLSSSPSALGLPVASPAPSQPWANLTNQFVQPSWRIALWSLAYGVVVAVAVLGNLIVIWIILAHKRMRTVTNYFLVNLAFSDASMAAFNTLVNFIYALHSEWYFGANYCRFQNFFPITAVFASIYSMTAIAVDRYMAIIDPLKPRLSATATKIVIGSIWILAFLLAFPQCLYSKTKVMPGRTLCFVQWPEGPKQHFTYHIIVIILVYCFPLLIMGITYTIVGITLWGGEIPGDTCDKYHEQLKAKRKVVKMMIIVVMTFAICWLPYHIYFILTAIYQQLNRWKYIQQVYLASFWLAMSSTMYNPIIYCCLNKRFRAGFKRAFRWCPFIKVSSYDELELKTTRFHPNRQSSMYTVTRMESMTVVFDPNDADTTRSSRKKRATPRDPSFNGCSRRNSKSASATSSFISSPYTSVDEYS

[5] = target: Somatostatin receptor (Rattus norvegicus) (UniProt Q7TT86); experiment: Displacement of [125I]somatostatin from somatostatin receptor in rat cerebral cortices membrane at 5 ug/mL; assay type: cell membranes
Chain of Somatostatin receptor (Rattus norvegicus) (Q7TT86 as listed by the source): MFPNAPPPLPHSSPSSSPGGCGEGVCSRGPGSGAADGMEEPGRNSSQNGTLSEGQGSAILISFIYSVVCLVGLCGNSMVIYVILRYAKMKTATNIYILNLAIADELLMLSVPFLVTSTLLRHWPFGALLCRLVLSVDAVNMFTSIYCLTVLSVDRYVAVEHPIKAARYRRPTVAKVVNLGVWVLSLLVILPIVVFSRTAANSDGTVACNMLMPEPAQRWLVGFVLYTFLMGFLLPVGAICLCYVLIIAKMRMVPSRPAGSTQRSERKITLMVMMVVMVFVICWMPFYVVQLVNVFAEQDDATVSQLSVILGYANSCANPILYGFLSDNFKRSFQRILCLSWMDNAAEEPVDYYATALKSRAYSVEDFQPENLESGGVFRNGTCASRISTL

[6] = Binding affinity to neurotensin receptor at 5 ug/mL
[7] = Binding affinity to quisqualate site of glutamate receptor at 5 ug/mL by AMPA binding assay
[8] = target: T2, B2 bradykinin receptor (Homo sapiens) (UniProt P30411); experiment: Displacement of [3H]bradykinin from bradykinin B2 receptor expressed in baculovirus-infected SF21 cells at 5 ug/mL
T2 sequence (whole entry): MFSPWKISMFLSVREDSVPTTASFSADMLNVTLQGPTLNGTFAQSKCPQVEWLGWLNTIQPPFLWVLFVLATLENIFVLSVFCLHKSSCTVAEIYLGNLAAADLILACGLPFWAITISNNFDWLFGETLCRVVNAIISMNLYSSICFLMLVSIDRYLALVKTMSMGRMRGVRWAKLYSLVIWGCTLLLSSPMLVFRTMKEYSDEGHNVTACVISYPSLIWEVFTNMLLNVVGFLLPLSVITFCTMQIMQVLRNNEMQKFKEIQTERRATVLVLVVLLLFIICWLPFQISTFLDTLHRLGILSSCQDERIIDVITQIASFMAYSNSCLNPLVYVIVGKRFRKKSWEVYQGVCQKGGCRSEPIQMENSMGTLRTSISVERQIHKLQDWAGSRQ

[9] = organism: Rattus norvegicus; experiment: Displacement of [3H]NPY from neuropeptide Y receptor in rat cerebral cortices membrane at 5 ug/mL; assay type: cell membranes
[10] = Antagonist activity at serotonin receptor in guinea pig ileum assessed as inhibition of serotonin-induced contraction; assay type: functional, tissue-based; details: Cavia porcellus
[11] = Binding affinity to VIP receptor at 5 ug/mL

Chain of Calcitonin gene-related peptide type 1 receptor (Homo sapiens) (Q16602 whole entry): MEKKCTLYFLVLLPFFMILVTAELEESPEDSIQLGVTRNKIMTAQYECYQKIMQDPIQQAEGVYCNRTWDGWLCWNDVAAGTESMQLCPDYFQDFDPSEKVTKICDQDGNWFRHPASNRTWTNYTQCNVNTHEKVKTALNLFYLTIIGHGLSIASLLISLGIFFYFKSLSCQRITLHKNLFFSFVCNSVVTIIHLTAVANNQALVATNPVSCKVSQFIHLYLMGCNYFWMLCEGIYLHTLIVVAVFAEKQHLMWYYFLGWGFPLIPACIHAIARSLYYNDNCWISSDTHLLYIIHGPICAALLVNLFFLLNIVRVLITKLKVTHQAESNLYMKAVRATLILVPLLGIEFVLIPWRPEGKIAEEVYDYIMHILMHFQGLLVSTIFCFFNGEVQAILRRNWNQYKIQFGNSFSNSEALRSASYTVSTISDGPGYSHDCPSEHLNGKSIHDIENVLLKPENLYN

| Activity [1] | Activity [3] | Activity [4] | Activity [5] | Activity [6] | Activity [7] | inhibition [8] [%] | inhibition [9] [%] | IC50 [10] [µM] | Activity [11] | SMILES | Activity [2] |
| --- | --- | --- | --- | --- | --- | --- | --- | --- | --- | --- | --- |
| inactive | inactive | inactive | 91% | inactive | inactive | 89 | 67 | 10 | inactive | NCCc1c(C(CN)c2c[nH]c3cc(Br)ccc23)[nH]c2cc(Br)ccc12 (racemic) | inactive |
| – | – | – | – | – | – | – | – | 2 | – | NCCc1c(C(CN)c2c[nH]c3cc(Br)ccc23)[nH]c2ccc(O)c(C(CN)c3c[nH]c4cc(Br)ccc34)c12 (racemic) | – |
| inactive | inactive | inactive | 87% | inactive | inactive | 63 | 63 | 50 | inactive | NCCc1c(C(CN)c2c[nH]c3cc(Br)ccc23)[nH]c2ccc(O)cc12 (racemic) | inactive |
| inactive | inactive | inactive | Active | inactive | inactive | – | – | – | inactive | NCCc1c(C(CN)c2c[nH]c3cc(Br)ccc23)[nH]c2cc(C(CN)c3c[nH]c4cc(Br)ccc34)c(O)cc12 (racemic) | inactive |
| – | – | – | – | – | – | 100 | 90 | – | – | NCCc1c(C(CN)c2c[nH]c3cc(Br)ccc23)[nH]c2cc(C(CN)c3c[nH]c4cc(Br)ccc34)c(O)cc12 (stereo in doubt; form 1) | – |
| – | – | – | – | – | – | 93 | 62 | – | – | NCCc1c(C(CN)c2c[nH]c3cc(Br)ccc23)[nH]c2cc(C(CN)c3c[nH]c4cc(Br)ccc34)c(O)cc12 (stereo in doubt; form 2) | – |

| SMILES | Activity [1] | Activity [3] | Activity [4] | Activity [5] | Activity [6] | Activity [7] | inhibition [8] [%] | inhibition [9] [%] | IC50 [10] [µM] | Activity [11] | Activity [2] |
| --- | --- | --- | --- | --- | --- | --- | --- | --- | --- | --- | --- |
| NCCc1c[nH]c2ccc(O)c(C(CN)c3c[nH]c4cc(Br)ccc34)c12 (racemic) | – | – | – | – | – | – | – | – | 100 | – | – |

Source: ChEMBL document CHEMBL1159283, “Further brominated bis- and tris-indole alkaloids from the deep-water New Caledonian marine sponge Orina Sp” (J Nat Prod, 1995)
